Like-named read-outs stand apart in the source and are kept apart here.
Legend:
[1] = tested on: BaF3-FLT3-ITD-F691L (stably expressing FLT3/ITD F691L mutant activated kinase); assay: Cell proliferation, Cell Titer-Glo, BaF3-FLT3-ITD-F691L; type: cell-based; settings: Mus musculus
Experimental: (§1) The above cell lines were constructed by our laboratory.
(§2) The number of viable cells was determined by quantification of ATP in living cells using the Cell Titer-Glo® (Promega, USA) chemiluminescence cell viability assay kit.

[2] = tested on: TEL-BaF3-FLT3-D835Y (stably expressing FLT3 D835Y mutant activated kinase); assay: Cell proliferation, Cell Titer-Glo, TEL-BaF3-FLT3-D835Y; type: cell-based; settings: Mus musculus
Experimental: as §1, §2

[3] = tested on: TPR-MET-BaF3 (stably expressing MET kinase); assay: Cell proliferation, Cell Titer-Glo, TPR-MET-BaF3; type: cell-based; settings: Mus musculus; incubated for 72 hours
Experimental: as §1, §2

[4] = tested on: TEL-BaF3-BMX (stably expressing BMX kinase); assay: Cell proliferation, Cell Titer-Glo, TEL-BaF3-BMX; type: cell-based; settings: Mus musculus; incubated for 72 hours
Procedure, shortened: (§3)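 Proliferation of the engineered BaF3 lines was followed by measuring ATP in living cells with a CellTiter-Glo chemiluminescence viability kit, and the luminescent signal served as the count of viable cells.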

[5] = tested on: U937 (expressing wild-type FLT3 gene); assay: Cell proliferation, Cell Titer-Glo, U937; type: cell-based, human; settings: Homo sapiens, U-937, 72 h
Procedure, shortened: (§4)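 Read-out: luminescence from ATP in live cells (CellTiter-Glo), taken as viable cell number. Cell lines were built in-house.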

[6] = tested on: BaF3-FLT3-ITD-D835Y (stably expressing FLT3/ITD D835Y mutant activated kinase); assay: Cell proliferation, Cell Titer-Glo, BaF3-FLT3-ITD-D835Y; type: cell-based; settings: Mus musculus
Experimental: as §1, §2

[7] = tested on: MOLM-14 (expressing FLT3/ITD mutant gene and wild-type FLT3 gene); assay: Cell proliferation, Cell Titer-Glo, MOLM-14; type: cell-based; settings: Homo sapiens
Experimental: as §1, §2

MV4-11 cell lines = assay: Cell apoptosis, Western Blot of PARP and Caspase 3 cleavage, MV4-11; type: cell-based, human; settings: after 24 hours
From the text: (§5) Western Blot was used to detect the effects of different concentrations of drugs on protein cleavage of DNA repair enzyme, poly ADP-ribose polymerase PARP and cysteinyl aspartate specific proteinase Caspase 3 at different time intervals (FIG. 3).

[8] = tested on: MV4-11 (expressing FLT3/ITD mutant gene); assay: Cell proliferation, Cell Titer-Glo, MV4-11; type: cell-based; settings: Homo sapiens
Procedure, shortened: as §4

MOLM-13 cell lines = assay: Cell apoptosis, Western Blot of PARP and Caspase 3 cleavage, MOLM-13; type: cell-based, human; settings: MOLM-13, 0.1 μM
From the text: as §5

[9] = tested on: TEL-FLT3-BaF3 (stably expressing FLT3 kinase); assay: Cell proliferation, Cell Titer-Glo, TEL-FLT3-BaF3; type: cell-based; settings: Mus musculus, 72 h, read-out: TEL-FLT3-BaF3 IC50 [μM]
Experimental: as §1, §2

pro-B cell BaF3 = assay: Cell proliferation, Cell Titer-Glo, BaF3; type: cell-based; settings: Mus musculus, incubated for 72 hours
Procedure, shortened: as §3

[10] = tested on: TEL-cKIT-BaF3 (stably expressing cKIT kinase); assay: Cell proliferation, Cell Titer-Glo, TEL-cKIT-BaF3; type: cell-based; settings: Mus musculus; incubated for 72 hours
Procedure, shortened: as §3

[11] = tested on: TEL-BaF3-FLT3/ITD (stably expressing FLT3/ITD mutant activated kinase); assay: Cell proliferation, Cell Titer-Glo, TEL-BaF3-FLT3/ITD; type: cell-based, mouse; settings: Mus musculus, 72 h
Procedure, shortened: as §3

[12] = tested on: TEL-BaF3-BLK (stably expressing BLK kinase); assay: Cell proliferation, Cell Titer-Glo, TEL-BaF3-BLK; type: cell-based; settings: Mus musculus; incubated for 72 hours
Procedure, shortened: as §3

[13] = tested on: Signaling pathways of FLT3 in MV4-11 and MOLM-14 cell lines; assay: Effects on upstream and downstream signaling pathways of FLT3 in cells; type: cell-based, human; settings: for C-Myc (degradation; for AC220 phosphorylation) / phosphorylation of STAT5 / phosphorylation of protein kinase FLT3: treated for 4 hours
[14] = tested on: MV4-11 cell lines carrying FLT3/ITD mutant gene; assay: Cell cycle distribution by flow cytometry; type: cell-based, human; settings: MV4-11, 0.1 μM, 24 hours
[15] = tested on: MOLM-13 (expressing FLT3/ITD mutant gene and wild-type FLT3 gene); assay: Cell proliferation, Cell Titer-Glo, MOLM-13; type: cell-based; settings: Homo sapiens
Procedure, shortened: as §4

[16] = tested on: TEL-BaF3-EGFR (stably expressing EGFR kinase); assay: Cell proliferation, Cell Titer-Glo, TEL-BaF3-EGFR; type: cell-based; settings: Mus musculus; incubated for 72 hours
Experimental: as §1, §2

[17] = tested on: TEL-JAK1-BaF3 (stably expressing JAK1 kinase); assay: Cell proliferation, Cell Titer-Glo, TEL-JAK1-BaF3; type: cell-based; settings: Mus musculus; incubated for 72 hours
Experimental: as §1, §2

[18] = tested on: BaF3-tel-cKit-D816V (stably expressing cKIT D816V mutant activated kinase); assay: Cell proliferation, Cell Titer-Glo, BaF3-tel-cKit-D816V; type: cell-based; settings: Mus musculus; incubated for 72 hours
Experimental: as §1, §2

[19] = tested on: BaF3-tel-cKit-N882K (stably expressing cKIT N882K mutant activated kinase); assay: Cell proliferation, Cell Titer-Glo, BaF3-tel-cKit-N882K; type: cell-based; settings: Mus musculus; incubated for 72 hours
Experimental: as §1, §2

BTK protein kinase = BTK protein kinase (Homo sapiens (Human), UniProt Q06187); assay: In vitro inhibition activity (enzymatic activity), ADP-Glo, BTK; type: biochemical; settings: ATP 10 μM
Sequence of BTK protein kinase (Q06187 whole entry): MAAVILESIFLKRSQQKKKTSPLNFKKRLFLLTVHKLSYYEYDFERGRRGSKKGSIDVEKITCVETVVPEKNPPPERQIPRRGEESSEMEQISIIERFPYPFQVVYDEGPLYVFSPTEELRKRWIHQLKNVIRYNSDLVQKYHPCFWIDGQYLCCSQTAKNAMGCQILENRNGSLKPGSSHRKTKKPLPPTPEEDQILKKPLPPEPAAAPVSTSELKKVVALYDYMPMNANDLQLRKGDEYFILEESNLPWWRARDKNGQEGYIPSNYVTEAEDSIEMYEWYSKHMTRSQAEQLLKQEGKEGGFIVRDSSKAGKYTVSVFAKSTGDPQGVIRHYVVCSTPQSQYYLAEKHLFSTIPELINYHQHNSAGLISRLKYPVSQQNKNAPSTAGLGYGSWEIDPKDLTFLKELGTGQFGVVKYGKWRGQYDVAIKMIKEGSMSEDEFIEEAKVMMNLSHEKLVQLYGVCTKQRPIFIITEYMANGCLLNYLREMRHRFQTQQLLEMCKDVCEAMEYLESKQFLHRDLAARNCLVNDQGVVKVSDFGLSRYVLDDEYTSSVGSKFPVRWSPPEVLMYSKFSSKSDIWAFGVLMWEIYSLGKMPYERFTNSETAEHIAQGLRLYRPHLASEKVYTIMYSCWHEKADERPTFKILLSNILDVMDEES

[20] = tested on: BaF3-tel-cKit-T670I (stably expressing cKIT T670I mutant activated kinase); assay: Cell proliferation, Cell Titer-Glo, BaF3-tel-cKit-T670I; type: cell-based; settings: Mus musculus; incubated for 72 hours
Experimental: as §1, §2

MOLM-14 cells = assay: Nude mouse subcutaneous tumor model with MOLM-14 cells; type: in vivo; settings: oral gavage, 2 to 3 weeks
Experimental: More than 30 mice (5-week-old) (Balb/c-nu female mice, purchased from Shanghai Snake Experimental Animal Co., Ltd.) were inoculated subcutaneously with MOLM-14 cells in 1×10^7 cells/mouse, the changes in body weight and tumor volume were recorded daily (tumor volume=Tumor length×tumor width^2/2).

[21] = 72 h, read-out: BaF3-FLT3-ITD-F691L IC50 [μM]
[22] = read-out: U937 IC50 [μM], incubated for 72 hours
[23] = 72 h, read-out: BaF3-FLT3-ITD-D835Y IC50 [μM]
[24] = MOLM-14, 72 h, read-out: MOLM-14 IC50 [μM]
[25] = MV4-11, 72 h, read-out: MV4-11 IC50 [μM]
[26] = read-out: TEL-BaF3-FLT3/ITD IC50 [μM], incubated for 72 hours

SMILES | IC50 [1, 21] | IC50 [3] | IC50 [4] | IC50 [5, 22] | IC50 [6, 23] | IC50 [7, 24] | IC50 [8, 25] | IC50 (pro-B cell BaF3) | IC50 [10] | IC50 [11, 26] | IC50 [12] | C-Myc (degradation; for AC220 phosphorylation) [13] | phosphorylation of STAT5 [13] | phosphorylation of protein kinase FLT3 [13] | number of cells captured in G0-G1 phase [14] | IC50 [16] | IC50 [17] | IC50 (BTK protein kinase) | further results
CC(C)C[C@@H](N)C(=O)N[C@H]1CC[C@@H](n2nc(-c3ccc(Oc4ccccc4)cc3)c3c(N)ncnc32)CC1.Cl (stereo in doubt) [Compound 84, (R)-2-amino-N-(4-(4-amino-3-(4-phenoxyphenyl)-1H-pyrazolo[3,4-d]pyrimidin-1-yl)cis-1,4-cyclohexyl)-4-methylpentanamide hydrochloride] | 0.43 µM | 2900 nM | 63 nM | 3.3 µM | 0.28 µM | 0.002 µM | 0.01 µM | 750 nM | 6100 nM | < 0.0003 µM | 3 nM | significant effects on the degradation | very strong inhibitory effects | strongly inhibited | 89.92% | – | – | – | IC50 ([2]; 72 h, read-out: TEL-BaF3-FLT3-D835Y IC50 [μM]): 0.002 µM; cleavage of Caspase 3 (MV4-11 cell lines; MV 4-11, 0.03 μM): cleavage; cleavage of poly ADP-ribose polymerase PARP (MV4-11 cell lines; MV 4-11, 0.03 μM): relatively significant cleavage; cleavage of Caspase 3 (MOLM-13 cell lines; after 24 hours): very significant cleavage; cleavage of poly ADP-ribose polymerase PARP (MOLM-13 cell lines; after 24 hours): very significant cleavage; IC50 [9]: 0.013 µM; efficacy compared with Control Compound AC220 ([13]; AC220 at 0.1 μM): better efficacy
CN(C)CC(=O)N1CCC[C@@H](n2nc(-c3ccc(Oc4ccccc4)cc3)c3c(N)ncnc32)C1 [Compound 22, (R)-1-(3-(4-amino-(4-phenoxyphenyl)-1H-pyrazolo[3,4-d]pyrimidin-1-yl)piperidin-1-yl)-2-(dimethylamino)ethanone] | 0.22 µM | 2200 nM | 280 nM | 9.7 µM | 0.17 µM | 0.042 µM | 0.022 µM | 4900 nM | 1900 nM | 0.011 µM | 940 nM | significant effects on the degradation | very strong inhibitory effects | strongly inhibited | 95.78% | 1800 nM | 3800 nM | 190 nM | IC50 ([15]; MOLM-13, 72 h, read-out: MOLM-13 IC50 [μM]): 0.021 µM; IC50 [18]: 1000 nM; IC50 [19]: 1200 nM; cleavage of Caspase 3 (MV4-11 cell lines; MV 4-11, 0.1 μM): very significant cleavage; cleavage of poly ADP-ribose polymerase PARP (MV4-11 cell lines; MV 4-11, 0.1 μM): significant cleavage; cleavage of Caspase 3 (MOLM-13 cell lines; after 12 hours): very significant cleavage; cleavage of poly ADP-ribose polymerase PARP (MOLM-13 cell lines; after 12 hours): very significant cleavage; IC50 [20]: 3600 nM; tumor growth of the mice (MOLM-14 cells; 12.5-50 mg/kg): significantly inhibited; tumor volume growth of the mice (MOLM-14 cells; dose not specified): significantly slowed down
NC(=O)C(=O)N1CCC[C@@H](n2nc(-c3ccc(Oc4ccccc4)cc3)c3c(N)ncnc32)C1 [Compound 5, (R)-2-(3-(4-amino-(4-phenoxyphenyl)-1H-pyrazolo[3,4-d]pyrimidin-1-yl)piperidin-1-yl)-2-oxamide] | – | 5700 nM | 200 nM | – | – | – | – | > 10000 nM | 2200 nM | – | 970 nM | – | – | – | – | > 10000 nM | 4000 nM | 40 nM | IC50 ([15]; MOLM-13, incubated for 72 hours, read-out: MOLM-13 IC50): 0.085 µM; IC50 ([1]; incubated for 72 hours, read-out: BaF3-FLT3-ITD-F691L IC50): 0.37 µM; IC50 ([2]; incubated for 72 hours, read-out: TEL-BaF3-FLT3-D835Y IC50): 0.034 µM; IC50 ([5]; incubated for 72 hours, read-out: U937 IC50): 6.4 µM; IC50 ([6]; incubated for 72 hours, read-out: BaF3-FLT3-ITD-D835Y IC50): 0.32 µM; IC50 ([7]; MOLM-14, incubated for 72 hours, read-out: MOLM-14 IC50): 0.21 µM; IC50 ([8]; MV4-11, incubated for 72 hours, read-out: MV4-11 IC50): 0.12 µM; IC50 ([11]; incubated for 72 hours, read-out: TEL-BaF3-FLT3/ITD IC50): 0.51 µM

From patent US10266535B2, “Inhibitor of FLT3 kinase and use thereof” (HEFEI INSTITUTES OF PHYSICAL SCIENCE, CHINESE ACADEMY OF …, priority 2015, dated 2019)
